Source: paper PMC12071365, “Discovery of Boronic Acids-Based β-Lactamase Inhibitors Through In Situ Click Chemistry” (International Journal of Molecular Sciences, 2025)

How the values were obtained:
[1] = target: T1, AmpC (Escherichia coli, UniProt P00811); assay: Competitive inhibition assay with nitrocefin, Ki; assay type: biochemical; parameters: made in house; conditions: AmpC; values in nM
Procedure: (§1) The β-lactamases used in the present study were from a Clinical Biochemistry Laboratory collection (Department of Biotechnological and Applied Clinical Sciences, University of L’Aquila, L’Aquila, Italy). […] The concentration of each enzyme was determined by a Bradford assay.
(§2) The plot v0/vi versus [I] yielded a straight line of slope KM/(KM + S) × Ki.
Figure 9 Compounds synthesised and their biological evaluation. AC = Amplification coefficient. […] Light blue indicates the compounds from the AmpC screening.

[2] = target: T1, AmpC; parameters: made in house; conditions: AmpC 20 mol%; warhead 3 + alkyne cluster; 37 °C, 24 h
Procedure: Following the same conditions used for the multicomponent screening with KPC-2, the in situ click chemistry experiment was performed using AmpC as template.
(§3) Binary and multicomponent KTGS. […] The microtube was shaken at 300 rpm at 37 °C for 24 h. Reactions were transferred into a LC–MS vial and directly injected (10 µL) for liquid chromatography–mass spectrometry (LC–MS). Reactions were analysed with an Ultimate 3000 UHPLC coupled to a Q-exactive hybrid quadrupole-orbitrap mass spectrometer via an HESI-II heated electrospray ionisation source. The chromatographic separation was performed injecting a 10 µL sample volume on a Hypersil Gold C18 100 × 2.1 mm, 1.9 µm column (Thermo Fisher Scientific), kept at 30 °C eluting with 0.3 mL/min flow of ultrapure water (A) and methanol (B), both with 0.1% formic acid as mobile phase. […] A data-dependent mass spectrometric data acquisition strategy was used for full MS/DD-MS2. […] An inclusion list was eventually used to target the MS2 spectra acquisition of preferred ion species. Detection was based on calculated [M+H]^+ and [M−H]^− molecular ions with a 5 ppm accuracy tolerance for their respective ion chromatogram extraction. Peak retention time and area of detected target compounds was used for their detection and semi-quantitative evaluation in between reaction batches.
For controls (buffer and BSA), AmpC/KPC-2 is replaced with no enzyme (buffer volume 95 µL) and BSA (stock 100 µM, final concentration 5 µM, buffer volume 90 µL). Hits were identified in each cluster by mass and retention time and compared with both controls (buffer and BSA) and synthetically prepared triazoles obtained in mixtures.

[3] = target: T1, AmpC; assay: Binary in situ click chemistry between 3 and Al-12, with or without SM23; parameters: made in house; conditions: binary 3 + Al-12; AmpC 20 mol%; SM23 1 mol%
Procedure: as §3
For controls (buffer and BSA), AmpC/KPC-2 is replaced with no enzyme (buffer volume 95 µL) and BSA (stock 100 µM, final concentration 5 µM, buffer volume 90 µL). […]

[4] = target: T1, AmpC; assay: LC-MS t-SIM detection of boronic acids incubated with AmpC; parameters: made in house; conditions: 24 h, 37 °C
Source text: Given that boronic acids act as transition-state inhibitors by binding the catalytic serine of β-lactamases through a reversible covalent bond, we aimed to determine whether the in situ click chemistry reaction products were quantitatively detected during LC–MS analysis. Although boronic acids are reversible binders, their fast on–slow off behaviour raised concerns that triazole product formation might be underestimated due to covalent adducts forming with the protein target. To investigate this, compound 10a, warhead 3, and compounds 8 and 9 were incubated with AmpC (1:1 or 1:5 protein:compound ratio), and their detection was monitored over 24 h (Figure 10). […] The percentage of boronic acids detected was estimated using peak area measurements in the LC–MS-targeted SIM mode, with quantification being performed using calibration curves. The experiments were conducted at 37 °C in a 95:5 sodium phosphate 50 mM pH 7.0:DMSO mixture.
Figure 10 The % of detection of 10a (grey box), 3 (yellow box), 8 (green box), and 9 (blue box) over the course of the 24 h using the t-SIM method. Each cpd was tested in presence of 20% mol of AmpC or stoichiometric amount of AmpC. Each box includes 4 columns corresponding to % boronic acid detected at a certain time point (0, 8, 16, and 24 h).

[5] = target: T2, OXA-48 (Klebsiella pneumoniae, UniProt Q6XEC0); assay: KM of reporter substrate (Hanes-Woolf); assay type: biochemical; conditions: NaPi 50 mM pH 7.0
Procedure: (§6) The β-lactamases used in the present study were from a Clinical Biochemistry Laboratory collection (Department of Biotechnological and Applied Clinical Sciences, University of L’Aquila, L’Aquila, Italy). All enzymes show a purity degree of higher than 95%. The concentration of each enzyme was determined by a Bradford assay.

[6] = target: ADC-7; parameters: method as in PMID 26102369, PMID 34970229, PMID 37358467, PMID 26729491; conditions: ref [17],[19],[35],[36]; cited from earlier work
[7] = target: T1, AmpC; conditions: read-out: KM substrate; pH 7
Procedure: as §1

[8] = target: T3, KPC-53 (Klebsiella pneumoniae, UniProt Q9F663, DUP166-167/H272Y); conditions: read-out: KM substrate, NaPi 50 mM pH 7.0
Procedure: as §6

[9] = target: T4, SHV-12 (Klebsiella pneumoniae, UniProt P0AD64, E235K/G234S/L31Q); conditions: read-out: KM substrate, NaPi 50 mM pH 7.0
Procedure: as §6

[10] = target: T5, KPC-2 (Klebsiella pneumoniae, UniProt Q9F663); parameters: method as in PMID 26102369, PMID 34970229, PMID 37358467, PMID 26729491; conditions: ref [17],[19],[35],[36]; cited from earlier work
T5 construct: made in house

[11] = Stability in phosphate buffer by 1H NMR; assay type: physicochemical
Source text: Previously, even a low level of affinity was reported to be sufficient for the target-templated reaction. Therefore, to enable in situ click chemistry within the β-lactamase’s binding pocket, a series of bifunctional “warheads” displaying two defined features were designed. Firstly, the presence of the boronic acid moiety serves as an anchor to the SBLs catalytic serine. Secondly, the azido functionalisation guarantees the clickable building block for generation of bioactive triazoles within the target active site. Thus, one 2-azido-1-acylamino-ethaneboronic acid and three azidomethyl-phenylboronic acids were synthesised and characterised (Figure 3). […] Herein, the amide side chain from cephalothin is well known to interact with various β-lactamases through van der Waals and H-bonding interactions and can aid the process of recognition within the target. […] Other warheads inspired by previously developed acyclic boronic acids were not considered in this manuscript and will be explored in future works.

[12] = target: T4, SHV-12; assay: % inhibition at fixed concentration; assay type: biochemical; conditions: SHV-12, class A; inhibitor 200 µM; substrate NCF
[13] = target: ADC-25 (Acinetobacter baumannii, UniProt A8QIF8); assay: % inhibition at fixed concentration; assay type: biochemical
Procedure: (§4) Selection of an appropriate warhead-bearing reagent is crucial for achieving a successful in situ click chemistry. Thus, we assessed the inhibitory activity of the selected warheads against a pool of different β-lactamases to verify their binding specificity for the target. The affinity (inhibitory ability) of 2-4 against 12 representative β-lactamases from class A, B, C, and D was assessed as the percentage of inhibition at a fixed concentration of 200 µM (Table 1).
as §1, §2
(§5) For the β-lactamases test at a fixed concentration previously reported in Table 1, the following conditions were applied (Table 3): […]

[14] = target: CMY-2 (Klebsiella pneumoniae, UniProt Q48434); assay: % inhibition at fixed concentration; assay type: biochemical
Procedure: as §4, §1, §2, §5

[15] = target: T6, CTX-M-15 (Escherichia coli, UniProt Q9EXV5); assay: % inhibition at fixed concentration; assay type: biochemical
T6 construct: made in house
T6 sequence (Q9EXV5 entry or part of it): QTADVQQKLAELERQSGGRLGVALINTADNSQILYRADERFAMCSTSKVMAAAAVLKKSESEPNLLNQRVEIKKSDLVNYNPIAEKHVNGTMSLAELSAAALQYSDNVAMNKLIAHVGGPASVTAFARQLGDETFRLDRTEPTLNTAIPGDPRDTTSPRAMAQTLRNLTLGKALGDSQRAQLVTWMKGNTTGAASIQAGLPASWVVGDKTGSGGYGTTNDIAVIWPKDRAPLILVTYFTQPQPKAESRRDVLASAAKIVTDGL
Procedure: as §4, §1, §2, §5

[16] = target: T7, IMP-1 (Serratia marcescens, UniProt P52699); assay: % inhibition at fixed concentration; assay type: biochemical
T7 construct: made in house
Procedure: as §4, §1, §2, §5

[17] = target: T5, KPC-2; assay: % inhibition at fixed concentration; assay type: biochemical
Procedure: as §4, §1, §2, §5

[18] = target: T3, KPC-53; assay: % inhibition at fixed concentration; assay type: biochemical
Procedure: as §4, §1, §2, §5

[19] = target: OXA-24 (Acinetobacter baumannii, UniProt Q8RLA6); assay: % inhibition at fixed concentration; assay type: biochemical
Procedure: as §4, §1, §2, §5

[20] = target: T2, OXA-48; assay: % inhibition at fixed concentration; assay type: biochemical; conditions: OXA-48, class D; inhibitor 200 µM; substrate IMI
Procedure: as §4, §1, §2, §5

[21] = target: T8, VIM-1 (Pseudomonas aeruginosa, UniProt A0A0F7KYQ8); assay: % inhibition at fixed concentration; assay type: biochemical
T8 construct: made in house
Procedure: as §4, §1, §2, §5

[22] = target: T1, AmpC; assay: % inhibition at fixed concentration; assay type: biochemical; parameters: made in house
Source text: Selection of an appropriate warhead-bearing reagent is crucial for achieving a successful in situ click chemistry. Thus, we assessed the inhibitory activity of the selected warheads against a pool of different β-lactamases to verify their binding specificity for the target. […]
as §1, §2, §5

[23] = target: NDM-1 (Klebsiella pneumoniae, UniProt C7C422); assay: % inhibition at fixed concentration; assay type: biochemical; parameters: made in house
Procedure: as §4, §1, §2, §5

[24] = target: T5, KPC-2; assay: Competitive inhibition assay with nitrocefin, Ki; assay type: biochemical
Procedure: as §1, §2
AC = Amplification coefficient. In the AC column, between brackets reports the regioisomeric ratio observed (1,4- vs. 1,5-) and bold reports the synthesised regioisomer. Light blue indicates the compounds obtained from the KPC-2 screening.

[25] = target: T5, KPC-2; parameters: method as in PMID 35792385; conditions: ref [58]; cited from earlier work
[26] = tested on: O=C(Cc1cccs1)N[C@@H]1C(=O)N2C(C(=O)O)=C(/C=C/c3ccc([N+](=O)[O-])cc3[N+](=O)[O-])CS[C@H]12; assay: KM of reporter substrate (Hanes-Woolf); assay type: biochemical; conditions: pH 7.0
Procedure: as §6

[27] = tested on: C[C@@H](O)[C@H]1C(=O)N2C(C(=O)O)=C(S[C@@H]3CN[C@H](C(=O)N(C)C)C3)[C@H](C)[C@H]12; assay: purified protein, by the assay type

T1 sequence (P00811 20-377): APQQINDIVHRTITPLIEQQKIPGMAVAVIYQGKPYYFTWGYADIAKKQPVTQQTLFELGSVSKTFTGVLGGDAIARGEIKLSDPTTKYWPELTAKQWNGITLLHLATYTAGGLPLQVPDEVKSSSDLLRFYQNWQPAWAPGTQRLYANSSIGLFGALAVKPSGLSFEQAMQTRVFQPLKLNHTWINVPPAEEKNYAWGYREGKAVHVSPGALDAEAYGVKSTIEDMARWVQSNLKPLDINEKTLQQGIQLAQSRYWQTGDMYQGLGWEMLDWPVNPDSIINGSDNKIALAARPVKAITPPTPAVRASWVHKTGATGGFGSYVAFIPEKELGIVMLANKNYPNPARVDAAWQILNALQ

## O=S(=O)(NCc1cnnn1Cc1cccc(B(O)O)c1)C1CCCCC1 [10a]
[1]
  Ki: 140 nM
[2]
  AC (amplification coefficient): 5-6
[3]
  AC 10/10a: 1-2
[4]; 20 mol% AmpC, sodium phosphate pH 7.0:DMSO 95:5
  % boronic acid detected (remaining): 83%
[4]; stoichiometric AmpC
  boronic acid level detected: remained stable

## C[C@@H](O)[C@H]1C(=O)N2C(C(=O)O)=C(SCCN=CN)C[C@H]12 [IMI, Imipenem]
[5]
  Km: 13 ± 1 µM

## Nc1nnc(SCC(=O)N[C@@H](Cn2cc(C(=O)O)nn2)B(O)O)s1 [MB076]
[6]
  Ki: 210 nM

## O=C(Cc1cccs1)N[C@@H]1C(=O)N2C(C(=O)O)=C(/C=C/c3ccc([N+](=O)[O-])cc3[N+](=O)[O-])CS[C@H]12 [NCF, Nitrocefin]
[7]
  Km: 118 ± 2 µM
[8]
  Km: 106 ± 2 µM
[9]
  Km: 50 ± 3 µM

## O=C(Cc1cccs1)NC(Cn1cc(C(=O)O)nn1)B(O)O (stereo not drawn) [S02030]
[10]
  IC50: 80 nM
[6]
  Ki: 45 nM

## [N-]=[N+]=NCC(NC(=O)Cc1cccs1)B(O)O (stereo not drawn) [compound 1]
[11]
  stability in phosphate buffer: partially degrades

## [N-]=[N+]=NCc1ccccc1B(O)O [compound 2]
[12]
  % of inhibition: 14%
[13]
  inhibition at 200 µM: 27%
[14]
  inhibition at 200 µM: 19%
[15]
  inhibition at 200 µM: 0%
[16]
  inhibition at 200 µM: 12%
[17]
  inhibition at 100 µM: 35%
[18]
  inhibition at 200 µM: 54%
[19]
  inhibition at 200 µM: 20%
[20]
  inhibition at 200 µM: < 1%
[21]
  inhibition at 200 µM: 23%
[22]
  inhibition at 100 µM: 57%
[23]
  inhibition at 200 µM: 23%

## [N-]=[N+]=NCc1cccc(B(O)O)c1 [compound 3, (3-(azidomethyl)phenyl)boronic acid]
[12]
  % of inhibition: 38%
[13]
  inhibition at 200 µM: 67%
[14]
  inhibition at 200 µM: 79%
[15]
  inhibition at 200 µM: 42%
[16]
  inhibition at 200 µM: 11%
[17]
  inhibition at 100 µM: 76%
[18]
  inhibition at 200 µM: 65%
[19]
  inhibition at 200 µM: 24%
[20]
  inhibition at 200 µM: 2%
[21]
  inhibition at 200 µM: 24%
[24]
  Ki: 2300 nM
[25]
  activity vs. KPC-2: sub-µM
[22]
  inhibition at 100 µM: 100%
[22]; AmpC, class C, inhibitor 100 µM, substrate NCF
  % of inhibition: completely inhibits
[23]
  inhibition at 200 µM: 20%
[1]
  Ki: 700 nM

## [N-]=[N+]=NCc1ccc(B(O)O)cc1 [compound 4, (4-(azidomethyl)phenyl)boronic acid]
[12]
  % of inhibition: 48%
[13]
  inhibition at 200 µM: 46%
[14]
  inhibition at 200 µM: 67%
[15]
  inhibition at 200 µM: 22%
[16]
  inhibition at 200 µM: 22%
[17]
  inhibition at 100 µM: 72%
[18]
  inhibition at 200 µM: 55%
[19]
  inhibition at 200 µM: 26%
[20]
  inhibition at 200 µM: < 1%
[21]
  inhibition at 200 µM: 33%
[25]
  activity vs. KPC-2: sub-µM
[22]
  inhibition at 100 µM: 81%
[23]
  inhibition at 200 µM: 24%

## ADC-25 (Acinetobacter baumannii)
[26]
  Km: 120 ± 3 µM µM

## IMP-1 (Serratia marcescens)
[27]; other: IMP-1, HEPES 20 mM pH 7.0 + 20 µM Zn
  Km: 30 ± 1 µM µM

## VIM-1 (Pseudomonas aeruginosa PAO1)
[27]; other: VIM-1, HEPES 20 mM pH 7.0 + 20 µM Zn
  Km: 130 ± 4 µM µM
